Experimental data taken from patent publication US20250177400A1, “METHODS OF THERAPEUTICS DEVELOPMENT OF GLIOBLASTOMA MULTIFORME BY QUINAZOLINE DERIVATIVES AND THEREOF” (priority 2023, published 2025).
“Also recorded” adds a separate entry of the source. Like-named read-outs stand apart in the source and are kept apart here.

Legend:
[1] = tested on: Glioblastoma multiforme (GBM); conditions: cited from earlier work
[2] = tested on: Glioblastoma multiforme (GBM) cells (T98-G); test: Induction of apoptosis in cultured glioblastoma multiforme cells (microscopy); format: cell-based, human; conditions: for induction of apoptosis in GBM cells: T98-G cells, 50 and 100 μM, three days, compared to vehicle control
Description: FIG. 2 depicts a novel quinazoline derivative (Compound 1:6-Pyridin-2-yl -5,6-dihydro-benzo[4,5]imidazo[1,2-c]quinazoline) that induces apoptosis in Glioblastoma (GBM) cells. Cells were treated with different concentrations of Compound 1 (0.1, 1, 10, 50, 100μ) or vehicle (control).
(§1) Glioblastoma multiforme (GBM) cells (T98-G) were cultured in 6 wells for ˜90% confluent. Cells were treated with different concentrations of Compound 1 (0.1, 1, 10, 50, 100μ) or vehicle (control). […] Cell viability was tested by trypan blue exclusion assay.
(§2) GBM cell line T98-G (ATCC-CRL-1690) was obtained and authenticated by the American Type Culture Collection (Cat #30-2003; ATCC, Manassas, VA). Cells were cultured and maintained in low glucose Dulbecco's Modified Eagle Medium (DMEM) (Thermo Fisher Scientific) supplemented with 10% fetal bovine serum (FBS, Thermo Fisher Scientific) at 37° C. in a 5% CO2 humidified atmosphere and passed in less than 6 months. Human neuroblastoma cells. Human SH-SY5Y neuroblastoma cells (Sigma-Aldrich) were cultured in 45% F12K, 45% Modified Eagle Medium (MEM), supplemented with 10% FBS in tissue culture incubator (37° C., 5% CO2, 90% humidity). Primary skin fibroblasts. Primary skin fibroblasts were obtained from the Coriell Institute for Medical Research (Camden, NJ; Cat #AG09555; the Aging Cell Culture Repository of the National Institute on Aging) and maintained in DMEM with low glucose (Invitrogen, Grand Island, NY) supplemented with 10% FBS in 6-well culture plates (37° C., 5% CO2, 90% humidity) until reaching 90-100% confluence. In addition, cells were treated with either vehicle, 50, and 100 μM quinazoline derivatives and propentofylline. The condition of the cultured cells was monitored with an inverted cell culture microscope (Westover Digital AMID Model 2000, Westover Scientific, Bothell, WA), controlled by a computer, and images were captured with image acquisition software (Micron 2.0.0, Westover Scientific).

[3] = tested on: GBM cells; conditions: 2012, cited from earlier work; for GBM cell invasion and survival: Dhruv et al., 2016, Jacob et al.
[4] = tested on: integrin β1 (CD29); test: Western blot of integrin β1 levels in GBM cells; format: cell-based, human; conditions: normalized with β-tubulin, similar concentrations
Text: FIG. 6 depicts a novel quinazoline derivative (Compound 1:-Pyridin-2-yl -5,6-dihydro-benzo[4,5]imidazo[1,2-c]quinazoline) that decreases glioblastoma cell invasion by decreasing integrin β1 (CD29) levels. Intergrin β1 band decreased in Western blot analyses both in normal culture (A), and serum-free condition (B) by the treatment of compound 1. Propentofylline treatment produces reverse effects (A). Relative expression levels of integrin β1 is normalized with β-tubulin as a loading control in Western blot analyses. […] Standard Error of Mean (SEM) is calculated from three independent measurements.
Integrins have an important role to play in cell invasion in tumorigenic environments. […] We also compared the effectiveness of reducing β1 integrin level with propentofylline in the same concentration. […] Deletion of β1 integrin reduced tumorigenesis in in-vivo xenograft tumor growth animal model (Hou et al., 2016).
Reagents and antibodies: Propentofylline (molecular weight 306.366; [1-(5O-oxohexyl)-3-methyl-7-propylxanthine) was purchased from Sigma-Aldrich (St. Louis). Propentofylline and synthetic quinazoline derivatives were dissolved in DMSO (30-60 mM, depending on solubility). Aliquots were stored at −20 C. Stock solutions were dissolved in a culture medium at different concentrations just before each experiment. Rabbit monoclonal anti-Integrin beta 1 [CD29] antibody (Cat #04-1109) was purchased from Millipore (Temecula, CA). Anti-tubulin III antibody (Cat #79-720) was purchased from ProSci (Poway, CA). Antibody for PKCε (C-15) (Santa Cruz Biotechnology, Santa Cruz, CA; Cat No: sc-214) was used to detect PKCε and has been recommended for detection of PKCε of human origin by western blotting and immunofluorescence analysis by the manufacturer. Quinazoline derivatives were synthesized in the laboratory.

[5] = tested on: GBM cells; test: Model tumor spheroid assay: GBM cell invasion in three-dimensional Matrigel matrix; format: cell-based, human; conditions: 3D Matrigel matrix; for invasive cells in multicellular spheroids: 50 μM
Text: FIG. 5 depicts the Human glioblastoma multiforme (GBM) cell invasion in a three-dimensional Matrigel basement membrane. Model Tumor Spheroid assay: GBM cells form a spheroid tumor-like biological entity in three-dimensional space. Proliferation and invasion of GBM in 3-dimensional Matrigel matrix in 5 days (A) and 12 days (B). Arrows indicate invasive cells in model tumor spheroids. The proliferation and invasion of GBM in a three-dimensional Matrigel matrix have been studied for days. […] Arrows indicate invasive cells.
GBM cells were incubated in a previously prepared 3-dimensional Matrigel matrix. Multicellular spheroids were formed after three days of incubation. The mechanical properties of cell invasion of patient-derived primary glioblastoma cells have been studied recently in 3-D matrigel matric (Grundy et al., 2016). Cellular invasiveness was monitored in multicellular spheroids of GBM embedded in 3D matrigel matric (FIG. 5).

[6] = tested on: Glioblastoma multiforme (GBM) cells (T98-G); test: Cell viability by trypan blue exclusion assay; format: cell-based, human; conditions: 50 and 100 μM, 3 days
Description: FIG. 3 depicts concentration dependence cell viability of human glioblastoma multiforme (GBM) cells by novel quinazoline derivative (Compound 1: 6-Pyridin-2-yl-5,6-dihydro-benzo[4,5]imidazo[1,2-c]quinazoline).
as §1
as §2, with “Primary skin fibroblasts were obtained from the Coriell Institute for Medical Research (Camden, NJ; Cat #AG09555; the Aging Cell Culture Repository of the National Institute on Aging) and maintained in DMEM with low glucose (Invitrogen, Grand Island, NY) supplemented with 10% FBS in 6-well culture plates (37° C., 5% CO2, 90% humidity) until reaching 90-100% confluence. In addition, cells were treated with either vehicle, 50, and 100 μM quinazoline derivatives and propentofylline.” left out

[7] = biological target: T1, PKCε (Homo sapiens, UniProt Q02156); test: PKCε activity (membrane/cytosol ratio) in neuroblastoma cells; format: cell-based; conditions: SHSY5Y cells
T1 construct: host or cells: SH-SY5Y human neuroblastoma cells
T1 sequence (Q02156 1-737): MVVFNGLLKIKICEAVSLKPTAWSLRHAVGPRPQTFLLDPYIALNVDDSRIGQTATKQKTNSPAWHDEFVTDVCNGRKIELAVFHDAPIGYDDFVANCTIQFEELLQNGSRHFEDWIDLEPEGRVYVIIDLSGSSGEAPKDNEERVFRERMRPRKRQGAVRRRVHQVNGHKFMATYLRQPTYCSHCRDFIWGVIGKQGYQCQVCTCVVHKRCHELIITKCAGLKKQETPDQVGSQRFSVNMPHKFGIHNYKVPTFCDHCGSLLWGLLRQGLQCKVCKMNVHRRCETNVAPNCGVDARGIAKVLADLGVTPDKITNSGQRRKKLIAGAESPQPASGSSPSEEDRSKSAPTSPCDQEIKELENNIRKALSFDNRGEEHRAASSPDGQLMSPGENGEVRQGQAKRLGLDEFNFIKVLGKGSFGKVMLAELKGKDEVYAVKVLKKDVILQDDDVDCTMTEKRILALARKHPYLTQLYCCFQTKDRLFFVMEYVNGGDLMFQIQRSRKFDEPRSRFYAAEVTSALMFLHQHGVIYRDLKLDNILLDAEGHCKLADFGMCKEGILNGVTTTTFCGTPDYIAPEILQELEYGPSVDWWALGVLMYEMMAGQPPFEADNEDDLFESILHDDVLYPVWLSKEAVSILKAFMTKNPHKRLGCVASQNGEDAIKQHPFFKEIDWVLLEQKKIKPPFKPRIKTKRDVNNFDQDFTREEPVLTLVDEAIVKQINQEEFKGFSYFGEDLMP
Description: FIG. 7 depicts how novel quinazoline derivative decreases oncogenic PKCε activity in neuroblastoma cells. C=concentration of PKCε in cytosol fraction, and M=concentration of PKCε in membrane fraction of cells. PKCε activity was measured as the ratio of the concentration in the membrane and cytosol fraction.
Novel quinazoline derivative decreases oncogenic PKCepsilon (PKCε) activity in neuroblastoma cells (FIG. 7). We tested whether novel quinazoline derivatives can decrease oncogenic PKCε activity. […] Oncogenic PKCε is a survival kinase for GBM cells (Okhrimentko et al., 2005).
GBM cell line T98-G (ATCC-CRL-1690) was obtained and authenticated by the American Type Culture Collection (Cat #30-2003; ATCC, Manassas, VA). Cells were cultured and maintained in low glucose Dulbecco's Modified Eagle Medium (DMEM) (Thermo Fisher Scientific) supplemented with 10% fetal bovine serum (FBS, Thermo Fisher Scientific) at 37° C. in a 5% CO2 humidified atmosphere and passed in less than 6 months. Human neuroblastoma cells. […] The condition of the cultured cells was monitored with an inverted cell culture microscope (Westover Digital AMID Model 2000, Westover Scientific, Bothell, WA), controlled by a computer, and images were captured with image acquisition software (Micron 2.0.0, Westover Scientific). […]

[8] = tested on: human normal primary skin fibroblasts; test: Toxicity to cultured normal primary skin fibroblasts; format: cell-based
Description: FIG. 8 depicts the non-toxicity of Compound 1.
Insignificant toxicity was found for the quinazoline derivative (Compound 1): One quinazoline derivative (Compound 1) was non-toxic to cultured normal primary skin fibroblasts isolated from healthy individuals (FIG. 8). After three days of continuous treatment by 100 μM Compound 1, there was no cell death.
GBM cell line T98-G (ATCC-CRL-1690) was obtained and authenticated by the American Type Culture Collection (Cat #30-2003; ATCC, Manassas, VA). Cells were cultured and maintained in low glucose Dulbecco's Modified Eagle Medium (DMEM) (Thermo Fisher Scientific) supplemented with 10% fetal bovine serum (FBS, Thermo Fisher Scientific) at 37° C. in a 5% CO2 humidified atmosphere and passed in less than 6 months. Human neuroblastoma cells. Human SH-SY5Y neuroblastoma cells (Sigma-Aldrich) were cultured in 45% F12K, 45% Modified Eagle Medium (MEM), supplemented with 10% FBS in tissue culture incubator (37° C., 5% CO2, 90% humidity). Primary skin fibroblasts. […] The condition of the cultured cells was monitored with an inverted cell culture microscope (Westover Digital AMID Model 2000, Westover Scientific, Bothell, WA), controlled by a computer, and images were captured with image acquisition software (Micron 2.0.0, Westover Scientific).

Bevacizumab: FDA-approved immunotherapeutic agent; therapeutic antibody (Genentech)
progression-free survival at 6 months ([1]; GBM patients, % of cases): 36% | overall survival ([1]; GBM patients): 9.3 months | gastrointestinal perforation ([1]; human, in vivo): 1.5-5.4% | hypertension ([1]; human, in vivo): 5.5-11.4% | proteinuria ([1]; human, in vivo): 2.7-11.4% | thromboembolic events ([1]; human, in vivo): 3.2-11.9% | wound healing complications ([1]; human, in vivo): 0.8-3.3% | patients who developed therapeutic resistance ([1]; phase II clinical trial (Vredenburgh et al., 2007)): 40%

c1c[nH]c(-c2nc3ccccc3c3nc4ccccc4n23)c1 [Compound 7, 6-(1H-Pyrrol-2-yl)-benzo[4,5]imidazo[1,2-c]quinazoline]
induction of apoptosis in GBM cells [2]: caused significant apoptosis

CCCn1cnc2c1c(=O)n(CCCCC(C)=O)c(=O)n2C [Propentofylline, 1-(5O-oxohexyl)-3-methyl-7-propylxanthine]
GBM cell invasion and survival [3]: decreasing GBM cell invasion and survival | GBM cell invasion and survival ([3]; listed as propentofylline): decreased GBM cell invasion; also recorded: inhibits GBM survival | induction of apoptosis in GBM cells ([3]; Jacobs et al.): ineffective inducing apoptosis | induction of apoptosis in GBM cells [2]: did not induce apoptosis | integrin β1 expression level [4]: not able to reduce β1 integrin level | integrin β1 expression level ([4]; listed as propentofylline): significantly increases integrin β1 expression levels; also recorded: increased expression levels of β1-Integrin | invasive cells in multicellular spheroids [5]: Invasive cells were sprouting outside of the spheroid

c1ccc(C2Nc3ccccc3-c3nc4ccccc4n32)nc1 (centres unmarked) [Compound 1, 6-Pyridin-2-yl-5,6-dihydro-benzo[4,5]imidazo[1,2-c]quinazoline]
cell viability (trypan blue exclusion) [6]: Cell viability was reduced | PKCε activity (ratio of concentration in membrane and cytosol fraction) [7]: significantly decreased the PKCε activity | potency for inducing apoptosis / inhibiting GBM survival compared with Propentofylline ([2]; GBM cells, FIG. 4): more potent for inhibiting GBM survival than Propentofylline; also recorded: more potent than Propentofylline to induce apoptosis | induction of apoptosis in GBM cells [2]: induced significant apoptosis; also recorded: induce apoptosis; also recorded: caused significant apoptosis | integrin β1 expression level [4]: significantly decreases integrin β1 expression level; also recorded: decreasing β1 integrin (CD29) levels; also recorded: significantly reduced expression levels of β1-Integrin | cell death of primary skin fibroblasts ([8]; 100 μM, three days of continuous treatment): no noticeable cell death | toxicity to primary human skin fibroblasts ([8]; cultured normal primary skin fibroblasts from healthy individuals): non-toxic | invasive cells in multicellular spheroids [5]: no invasive cells | potency for reducing tumor size and cell invasion compared with Propentofylline ([5]; 5th day): more potent than Propentofylline in terms of reducing tumor size and cell invasion; also recorded: more potent inhibitor of GBM cell invasion

Cn1nnc2c(C(N)=O)ncn2c1=O [TMZ, temozolomide]
common side effects ([1]; patients): bone marrow suppression, genotoxic, and teratogenic
